From patent US10758534B2 (Vertex Pharmaceuticals Incorporated, priority 2014, dated 2020)

Molecular target: T1, F508del (Homo sapiens, UniProt P13569, DEL508-508)
T1 construct: expressed in transfected cells
Experiment: Protocol 2: FRET membrane potential optical assay (VIPR), identification of correction compounds
Assay type: cell-based
Conditions: F508del CFTR modulator activity; compounds of Table 1; read-out: EC30
Summary of the method: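 Single-addition HTS format: F508del-expressing NIH3T3 cells pre-incubated 16 hrs at 37° C. ± compound, with 27° C. culture as positive control. Channel activation by forskolin 10 μM and genistein 20 μM upon switch to gluconate bath, pH 7.4; read-out is FRET-based depolarization signal.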

T1 sequence (P13569 with tags, fused parts or gaps DEL508-508): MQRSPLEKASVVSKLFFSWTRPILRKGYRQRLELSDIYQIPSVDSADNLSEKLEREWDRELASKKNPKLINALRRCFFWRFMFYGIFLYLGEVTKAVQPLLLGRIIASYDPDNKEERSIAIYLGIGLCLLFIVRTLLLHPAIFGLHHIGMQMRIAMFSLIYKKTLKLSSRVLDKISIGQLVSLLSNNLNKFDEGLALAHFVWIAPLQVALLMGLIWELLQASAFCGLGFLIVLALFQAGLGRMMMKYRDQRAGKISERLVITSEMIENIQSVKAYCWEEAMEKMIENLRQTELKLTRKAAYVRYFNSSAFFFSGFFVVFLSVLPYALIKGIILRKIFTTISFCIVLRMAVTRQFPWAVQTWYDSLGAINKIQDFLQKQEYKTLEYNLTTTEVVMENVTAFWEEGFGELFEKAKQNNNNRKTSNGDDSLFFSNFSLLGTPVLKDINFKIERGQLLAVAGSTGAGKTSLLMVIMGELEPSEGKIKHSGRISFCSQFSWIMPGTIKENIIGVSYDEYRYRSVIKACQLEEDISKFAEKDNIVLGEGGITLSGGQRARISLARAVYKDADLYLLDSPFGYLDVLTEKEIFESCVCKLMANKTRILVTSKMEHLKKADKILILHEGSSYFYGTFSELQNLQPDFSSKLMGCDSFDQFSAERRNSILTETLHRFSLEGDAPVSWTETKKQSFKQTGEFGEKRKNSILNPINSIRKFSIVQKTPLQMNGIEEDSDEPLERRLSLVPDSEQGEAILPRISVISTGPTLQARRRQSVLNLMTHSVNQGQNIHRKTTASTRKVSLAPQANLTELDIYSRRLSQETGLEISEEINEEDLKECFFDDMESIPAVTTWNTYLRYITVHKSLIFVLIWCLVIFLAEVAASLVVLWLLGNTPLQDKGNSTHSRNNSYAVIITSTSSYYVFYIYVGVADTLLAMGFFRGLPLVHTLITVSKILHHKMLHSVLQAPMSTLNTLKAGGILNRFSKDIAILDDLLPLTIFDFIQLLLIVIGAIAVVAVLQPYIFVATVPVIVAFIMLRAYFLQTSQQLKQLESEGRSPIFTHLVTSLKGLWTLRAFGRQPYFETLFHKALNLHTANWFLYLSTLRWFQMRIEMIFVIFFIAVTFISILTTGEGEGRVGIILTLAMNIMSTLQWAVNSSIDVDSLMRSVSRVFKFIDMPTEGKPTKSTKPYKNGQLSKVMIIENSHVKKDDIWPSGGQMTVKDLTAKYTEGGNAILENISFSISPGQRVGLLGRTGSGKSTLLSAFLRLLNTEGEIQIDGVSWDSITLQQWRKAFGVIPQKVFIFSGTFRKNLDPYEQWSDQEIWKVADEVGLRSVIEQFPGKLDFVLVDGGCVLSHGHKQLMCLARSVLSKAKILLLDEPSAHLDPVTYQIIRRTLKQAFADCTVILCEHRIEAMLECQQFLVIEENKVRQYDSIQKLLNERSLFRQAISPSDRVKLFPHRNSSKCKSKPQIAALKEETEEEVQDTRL

Compound: CC1CN(c2ncc(-c3cc(F)cc(F)c3)cc2C(=O)NS(=O)(=O)c2cccc(N)n2)C(C)(C)C1 (stereo not drawn) [Compound 2259, N-[(6-amino-2-pyridyl)sulfonyl]-5-(3,5-difluorophenyl)-2-(2,2,4-trimethylpyrrolidin-1-yl)pyridine-3-carboxamide]
- EC30: < 3000 nM

Compound: COc1ccc2c(c1)CCN(c1cccc(S(=O)(=O)NC(=O)c3cccnc3N3CC(C)CC3(C)C)n1)C2 (stereo not drawn) [Compound 2260, N—[[6-(6-methoxy-3,4-dihydro-1H-isoquinolin-2-yl)-2-pyridyl]sulfonyl]-2-(2,2,4-trimethylpyrrolidin-1-yl)pyridine-3-carboxamide]
- EC30: < 3000 nM

Compound: CC1CN(c2ncccc2C(=O)NS(=O)(=O)c2cccc(OCc3ccccc3C(F)(F)F)n2)C(C)(C)C1 (stereo not drawn) [Compound 2261, N—[[6-[[2-(trifluoromethyl)phenyl]methoxy]-2-pyridyl]sulfonyl]-2-(2,2,4-trimethylpyrrolidin-1-yl)pyridine-3-carboxamide]
- EC30: < 3000 nM

Compound: CC1CN(c2ncccc2C(=O)NS(=O)(=O)c2cccc(NCCc3ccc(Cl)cc3)n2)C(C)(C)C1 (stereo not drawn) [Compound 2262, N—[[6-[2-(4-chlorophenyl)ethylamino]-2-pyridyl]sulfonyl]-2-(2,2,4-trimethylpyrrolidin-1-yl)pyridine-3-carboxamide]
- EC30: < 3000 nM

Compound: Cc1nc(-c2cccc(Oc3cccc(S(=O)(=O)NC(=O)c4cccnc4N4CC(C)CC4(C)C)n3)c2)no1 (stereo not drawn) [Compound 2263, N—[[6-[3-(5-methyl-1,2,4-oxadiazol-3-yl)phenoxy]-2-pyridyl]sulfonyl]-2-(2,2,4-trimethylpyrrolidin-1-yl)pyridine-3-carboxamide]
- EC30: < 3000 nM

Compound: CC1CN(c2ncccc2C(=O)NS(=O)(=O)c2cccc(OCc3cccc(Cl)c3)n2)C(C)(C)C1 (stereo not drawn) [Compound 2264, N—[[6-[(3-chlorophenyl)methoxy]-2-pyridyl]sulfonyl]-2-(2,2,4-trimethylpyrrolidin-1-yl)pyridine-3-carboxamide]
- EC30: < 3000 nM

Compound: C[C@@H]1CN(c2nc3ccccc3cc2C(=O)NS(=O)(=O)c2cccc(N)n2)C(C)(C)C1 [Compound 2265, N-[(6-amino-2-pyridyl)sulfonyl]-2-[(4S)-2,2,4-trimethylpyrrolidin-1-yl]quinoline-3-carboxamide]
- EC30: < 3000 nM

Compound: CC(C)COc1cccc(-c2ccc(C(=O)NS(=O)(=O)c3ccc[nH]c3=O)c(N3C[C@@H](C)CC3(C)C)n2)c1 [Compound 2267, 6-(3-isobutoxyphenyl)-N-[(2-oxo-1H-pyridin-3-yl)sulfonyl]-2-[(4S)-2,2,4-trimethylpyrrolidin-1-yl]pyridine-3-carboxamide]
- EC30: < 3000 nM

Compound: COc1cccc(-c2ccc(C(=O)NS(=O)(=O)c3cccnc3N)c(N3C[C@@H](C)CC3(C)C)n2)n1 [Compound 2268, N-[(2-amino-3-pyridyl)sulfonyl]-6-(6-methoxy-2-pyridyl)-2-[(4S)-2,2,4-trimethylpyrrolidin-1-yl]pyridine-3-carboxamide]
- EC30: < 3000 nM

Compound: CC1CN(c2ncccc2C(=O)NS(=O)(=O)c2cccc(OCc3cccc4ccccc34)n2)C(C)(C)C1 (stereo not drawn) [Compound 2270, N—[[6-(1-naphthylmethoxy)-2-pyridyl]sulfonyl]-2-(2,2,4-trimethylpyrrolidin-1-yl)pyridine-3-carboxamide]
- EC30: < 3000 nM

Compound: C[C@@H]1CN(c2nc(-c3cc(F)cc(F)c3)ccc2C(=O)NS(=O)(=O)c2cccnc2N)C(C)(C)C1 [Compound 2272, N-[(2-amino-3-pyridyl)sulfonyl]-6-(3,5-difluorophenyl)-2-[(4S)-2,2,4-trimethylpyrrolidin-1-yl]pyridine-3-carboxamide]
- EC30: < 3000 nM

Compound: CC1CN(c2ncccc2C(=O)NS(=O)(=O)c2cccc(OCc3ccccc3Cl)n2)C(C)(C)C1 (stereo not drawn) [Compound 2273, N—[[6-[(2-chlorophenyl)methoxy]-2-pyridyl]sulfonyl]-2-(2,2,4-trimethylpyrrolidin-1-yl)pyridine-3-carboxamide]
- EC30: < 3000 nM

Compound: CC1CN(c2ncccc2C(=O)NS(=O)(=O)c2cccc(Nc3cccc4cnccc34)n2)C(C)(C)C1 (stereo not drawn) [Compound 2274, N—[[6-(5-isoquinolylamino)-2-pyridyl]sulfonyl]-2-(2,2,4-trimethylpyrrolidin-1-yl)pyridine-3-carboxamide]
- EC30: 3000 to 10000 nM

Compound: CC1(C)C(Cc2ccccc2)CCN1c1ncccc1C(=O)NS(=O)(=O)c1cccc(N)n1 (stereo not drawn) [Compound 2275, N-[(6-amino-2-pyridyl)sulfonyl]-2-(3-benzyl-2,2-dimethyl-pyrrolidin-1-yl)pyridine-3-carboxamide]
- EC30: 3000 to 10000 nM

Compound: Cc1ccc(-c2nc(-c3cc(F)cc(OCC(C)C)c3)ccc2C(=O)NS(=O)(=O)N2CC[C@@H](N)C2)cc1 [Compound 2276, N-[(3R)-3-aminopyrrolidin-1-yl]sulfonyl-6-(3-fluoro-5-isobutoxy-phenyl)-2-(p-tolyl)pyridine-3-carboxamide]
- EC30: < 3000 nM

Compound: C[C@@H]1CN(c2nc(C3CCOC3)ccc2C(=O)NS(=O)(=O)c2ccccc2)C(C)(C)C1 (stereo partly drawn) [Compound 2277, N-(benzenesulfonyl)-6-tetrahydrofuran-3-yl-2-[(4S)-2,2,4-trimethylpyrrolidin-1-yl]pyridine-3-carboxamide]
- EC30: < 3000 nM

Compound: CCOc1cc(F)cc(-c2ccc(C(=O)NS(=O)(=O)c3ccc[nH]c3=O)c(N3C[C@@H](C)CC3(C)C)n2)c1 [Compound 2278, 6-(3-ethoxy-5-fluoro-phenyl)-N-[(2-oxo-1H-pyridin-3-yl)sulfonyl]-2-[(4S)-2,2,4-trimethylpyrrolidin-1-yl]pyridine-3-carboxamide]
- EC30: < 3000 nM

Compound: Cc1cc(-c2ccc(C(=O)NS(=O)(=O)c3cccc(N)n3)c(N3C[C@@H](C)CC3(C)C)n2)cnc1N(C)CC(C)C [Compound 2279, N-[(6-amino-2-pyridyl)sulfonyl]-6-[6-[isobutyl(methyl)amino]-5-methyl-3-pyridyl]-2-[(4S)-2,2,4-trimethylpyrrolidin-1-yl]pyridine-3-carboxamide]
- EC30: < 3000 nM

Compound: C[C@@H]1CN(c2nc(-c3ccc4ccccc4c3)ccc2C(=O)NS(=O)(=O)c2cccnc2N)C(C)(C)C1 [Compound 2280, N-[(2-amino-3-pyridyl)sulfonyl]-6-(2-naphthyl)-2-[(4S)-2,2,4-trimethylpyrrolidin-1-yl]pyridine-3-carboxamide]
- EC30: < 3000 nM

Compound: CC1CN(c2ncccc2C(=O)NS(=O)(=O)c2cccc(Nc3cc(F)cc(F)c3)n2)C(C)(C)C1 (stereo not drawn) [Compound 2282, N—[[6-(3,5-difluoroanilino)-2-pyridyl]sulfonyl]-2-(2,2,4-trimethylpyrrolidin-1-yl)pyridine-3-carboxamide]
- EC30: < 3000 nM

Compound: CC1CN(c2ncc(-c3ccccc3OC(C)C)cc2C(=O)NS(=O)(=O)c2cccc(N)n2)C(C)(C)C1 (stereo not drawn) [Compound 2283, N-[(6-amino-2-pyridyl)sulfonyl]-5-(2-isopropoxyphenyl)-2-(2,2,4-trimethylpyrrolidin-1-yl)pyridine-3-carboxamide]
- EC30: < 3000 nM

Compound: C[C@@H]1CN(c2nc(-c3ccc(F)c(F)c3)ccc2C(=O)NS(=O)(=O)c2ccc[nH]c2=O)C(C)(C)C1 [Compound 2284, 6-(3,4-difluorophenyl)-N-[(2-oxo-1H-pyridin-3-yl)sulfonyl]-2-[(4S)-2,2,4-trimethylpyrrolidin-1-yl]pyridine-3-carboxamide]
- EC30: < 3000 nM

Compound: Cc1cccc(N2CCN(c3cccc(S(=O)(=O)NC(=O)c4cccnc4N4CC(C)CC4(C)C)n3)CC2)n1 (stereo not drawn) [Compound 2285, N—[[6-[4-(6-methyl-2-pyridyl)piperazin-1-yl]-2-pyridyl]sulfonyl]-2-(2,2,4-trimethylpyrrolidin-1-yl)pyridine-3-carboxamide]
- EC30: < 3000 nM

Compound: CC1CN(c2ncccc2C(=O)NS(=O)(=O)c2cccc(OCc3ccc(C(C)(C)C)cc3)n2)C(C)(C)C1 (stereo not drawn) [Compound 2286, N—[[6-[(4-tert-butylphenyl)methoxy]-2-pyridyl]sulfonyl]-2-(2,2,4-trimethylpyrrolidin-1-yl)pyridine-3-carboxamide]
- EC30: < 3000 nM

Compound: Cc1cccc(-c2ccc(C(=O)NS(=O)(=O)c3cccc(N)n3)c(N3C[C@@H](C)CC3(C)C)n2)c1C [Compound 2287, N-[(6-amino-2-pyridyl)sulfonyl]-6-(2,3-dimethylphenyl)-2-[(4S)-2,2,4-trimethylpyrrolidin-1-yl]pyridine-3-carboxamide]
- EC30: < 3000 nM

Compound: CC1CN(c2ncc(-c3ccc(N(C)C)cc3)cc2C(=O)NS(=O)(=O)c2cccc(N)n2)C(C)(C)C1 (stereo not drawn) [Compound 2288, N-[(6-amino-2-pyridyl)sulfonyl]-5-(4-dimethylaminophenyl)-2-(2,2,4-trimethylpyrrolidin-1-yl)pyridine-3-carboxamide]
- EC30: < 3000 nM

Compound: CC(C)COc1cc(F)cc(-c2ccc(C(=O)NS(=O)(=O)c3cccc(N)n3)c(N(C)CC3CCCCC3)n2)c1 [Compound 2289, N-[(6-amino-2-pyridyl)sulfonyl]-2-[cyclohexylmethyl(methyl)amino]-6-(3-fluoro-5-isobutoxy-phenyl)pyridine-3-carboxamide]
- EC30: < 3000 nM

Compound: CC(C)n1cc(-c2ccc(C(=O)NS(=O)(=O)c3cccnc3N)c(N3C[C@@H](C)CC3(C)C)n2)cn1 [Compound 2290, N-[(2-amino-3-pyridyl)sulfonyl]-6-(1-isopropylpyrazol-4-yl)-2-[(4S)-2,2,4-trimethylpyrrolidin-1-yl]pyridine-3-carboxamide]
- EC30: 3000 to 10000 nM

Compound: C[C@@H]1CN(c2nc(-c3cccc(F)c3F)ccc2C(=O)NS(=O)(=O)c2cccnc2N)C(C)(C)C1 [Compound 2291, N-[(2-amino-3-pyridyl)sulfonyl]-6-(2,3-difluorophenyl)-2-[(4S)-2,2,4-trimethylpyrrolidin-1-yl]pyridine-3-carboxamide]
- EC30: < 3000 nM

Compound: CC1CN(c2ncccc2C(=O)NS(=O)(=O)c2cccc(Nc3ccc(C(F)(F)F)cc3)n2)C(C)(C)C1 (stereo not drawn) [Compound 2292, N—[[6-[4-(trifluoromethyl)anilino]-2-pyridyl]sulfonyl]-2-(2,2,4-trimethylpyrrolidin-1-yl)pyridine-3-carboxamide]
- EC30: < 3000 nM
